Values of other authors as cited in patent publication US11224576B2, “Process for the production of an abuse-proofed dosage form” (GRÜNENTHAL GMBH, priority 2004, dated 2022).

COc1cccc(C2(O)CCCCC2CN(C)C)c1 (stereo not shown) [Tramadol, tramadol]
water solubility: excellent
